{"source": "patent US10774084B2", "about": "“Adenine derivatives and their use as UV-photoprotective agents” (UNIVERZITA PALACKEHO V OLOMOUCI, priority 2015, dated 2020)", "tested_on": "human dermal fibroblast (HDF)", "assay": "Comparative gene expression analysis (mRNA sequencing)", "type": "cell-based", "conditions": "5 μM, 24 h", "description": "Comparative gene expression analysis in human dermal fibroblast (HDF) was performed to gain insight into role of compound 1 in the photoprotection against UV-induced damage. Three independent HDF lines form three patients were treated with 5 μM 1 for 24 h or mock-treated with DMSO. Alternatively, the above three biological samples (without 1) were irradiated with UV light (5 J/cm2). 1.5-3.0×10^6 cells from each treatment or control was used for isolation of total RNA using trizol. cDNA sequencing libraries were prepared with the Illumina TruSeq Stranded mRNA LT Sample Prep Kit (Illumina, San Diego, Calif.) according to standard Illumina's protocols and sequenced on HiSeq 2500 apparatus (50 bp single-end reads).\nTo reveal the molecular mechanism of the action of 1, we compared data from mock (DMSO)-treated HDF or UV-treated HDF with those obtained after 24 h treatment with 1. For data analysis, we performed ab initio method where sequencing reads were mapped to the reference genome. […] These included calcium-activated potassium channel KCNN4, calcium sensor DYSF or calcium-dependent phospholipid-binding protein CPNE7. […] Thus, 1 seems to protect cells against oxidative damage caused primarily by UV-light or other stress conditions.", "key": {"[1]": {"conditions": "1-treated vs UV-treated group, P<0.05"}}, "data": [{"smiles": "c1nc(NCC2CCCO2)c2ncn(C3CCCO3)c2n1", "note": "(centres unmarked) [Compound 1, 6-(tetrahydrofuran-2-ylmethylamino)-9-(tetrahydrofuran-2-yl)purine]", "values": [{"measurement": "number of differentially regulated genes", "setting": "[1]", "value": 1306, "unit": "genes"}, {"measurement": "number of downregulated genes", "setting": "[1]", "value": 441, "unit": "genes"}, {"measurement": "number of upregulated genes", "setting": "[1]", "value": 865, "unit": "genes"}, {"measurement": "significantly regulated genes, control group vs samples treated with 1 (in words)", "setting": "vs DMSO mock", "value": "did not show any significantly regulated genes"}, {"measurement": "logFC ABCG1", "setting": "vs UV-treated group", "value": "−2.63"}, {"measurement": "logFC AC002456.2", "setting": "vs UV-treated group", "value": 1.58}, {"measurement": "logFC AC003986.6", "setting": "vs UV-treated group", "value": "−1.65"}, {"measurement": "logFC ADAMTS9-AS2", "setting": "vs UV-treated group", "value": "−1.63"}, {"measurement": "logFC ADGRG1", "setting": "vs UV-treated group", "value": 1.52}, {"measurement": "logFC ANGPTL4", "setting": "vs UV-treated group", "value": 1.73}, {"measurement": "logFC ANKRD33", "setting": "vs UV-treated group", "value": 2.69}, {"measurement": "logFC APOL6", "setting": "vs UV-treated group", "value": "−1.51"}, {"measurement": "logFC ARHGAP22", "setting": "vs UV-treated group", "value": 1.66}, {"measurement": "logFC B4GALNT1", "setting": "vs UV-treated group", "value": 1.55}, {"measurement": "logFC BHLHE22", "setting": "vs UV-treated group", "value": "−1.90"}, {"measurement": "logFC BRINP2", "setting": "vs UV-treated group", "value": "−1.77"}, {"measurement": "logFC BTC", "setting": "vs UV-treated group", "value": "−1.84"}, {"measurement": "logFC CCDC107", "setting": "vs UV-treated group", "value": 1.50}, {"measurement": "logFC CCL8", "setting": "vs UV-treated group", "value": "−2.80"}, {"measurement": "logFC CCL26", "setting": "vs UV-treated group", "value": 1.75}, {"measurement": "logFC CD163", "setting": "vs UV-treated group", "value": 1.67}, {"measurement": "logFC CFB", "setting": "vs UV-treated group", "value": "−1.96"}, {"measurement": "logFC CHRNA9", "setting": "vs UV-treated group", "value": 2.21}, {"measurement": "logFC CITED4", "setting": "vs UV-treated group", "value": 1.63}, {"measurement": "logFC CLNS1AP1", "setting": "vs UV-treated group", "value": "−1.80"}, {"measurement": "logFC CPNE7", "setting": "vs UV-treated group", "value": 1.61}, {"measurement": "logFC CTD-2587H24.5", "setting": "vs UV-treated group", "value": 1.54}, {"measurement": "logFC CXCL9", "setting": "vs UV-treated group", "value": "−1.79"}, {"measurement": "logFC CYP51A1", "setting": "vs UV-treated group", "value": 1.65}, {"measurement": "logFC DHRS3", "setting": "vs UV-treated group", "value": "−1.60"}, {"measurement": "logFC DYSF", "setting": "vs UV-treated group", "value": 1.73}, {"measurement": "logFC EBF2", "setting": "vs UV-treated group", "value": 1.62}, {"measurement": "logFC FAM20A", "setting": "vs UV-treated group", "value": "−1.86"}, {"measurement": "logFC FAM81A", "setting": "vs UV-treated group", "value": 1.71}, {"measurement": "logFC FGD3", "setting": "vs UV-treated group", "value": "−1.93"}, {"measurement": "logFC FOLR3", "setting": "vs UV-treated group", "value": 1.68}, {"measurement": "logFC GBP2", "setting": "vs UV-treated group", "value": "−1.61"}, {"measurement": "logFC GPR37L1", "setting": "vs UV-treated group", "value": "−1.66"}, {"measurement": "logFC HAUS1P2", "setting": "vs UV-treated group", "value": "−1.54"}, {"measurement": "logFC HCK", "setting": "vs UV-treated group", "value": "−1.66"}, {"measurement": "logFC HS3ST2", "setting": "vs UV-treated group", "value": 2.50}, {"measurement": "logFC IFIT2", "setting": "vs UV-treated group", "value": "−1.77"}, {"measurement": "logFC ITGA10", "setting": "vs UV-treated group", "value": 1.77}, {"measurement": "logFC JAK3", "setting": "vs UV-treated group", "value": "−1.68"}, {"measurement": "logFC KCNN4", "setting": "vs UV-treated group", "value": 1.85}, {"measurement": "logFC KCNT2", "setting": "vs UV-treated group", "value": "−2.21"}, {"measurement": "logFC KIF1A", "setting": "vs UV-treated group", "value": 3.05}, {"measurement": "logFC LINC00702", "setting": "vs UV-treated group", "value": 1.60}, {"measurement": "logFC LINC00704", "setting": "vs UV-treated group", "value": 1.69}, {"measurement": "logFC LINC01204", "setting": "vs UV-treated group", "value": 1.64}, {"measurement": "logFC MET", "setting": "vs UV-treated group", "value": 1.63}, {"measurement": "logFC MOB3B", "setting": "vs UV-treated group", "value": "−1.70"}, {"measurement": "logFC MYEOV", "setting": "vs UV-treated group", "value": 1.98}, {"measurement": "logFC NRROS", "setting": "vs UV-treated group", "value": 1.74}, {"measurement": "logFC NUDT8", "setting": "vs UV-treated group", "value": 1.56}, {"measurement": "logFC PPP2R2C", "setting": "vs UV-treated group", "value": 1.95}, {"measurement": "logFC PSAT1P3", "setting": "vs UV-treated group", "value": "−2.19"}, {"measurement": "logFC RARRES3", "setting": "vs UV-treated group", "value": "−2.09"}, {"measurement": "logFC RNF150", "setting": "vs UV-treated group", "value": "−1.80"}, {"measurement": "logFC RORB", "setting": "vs UV-treated group", "value": "−1.57"}, {"measurement": "logFC RP1-181J22.1", "setting": "vs UV-treated group", "value": "−2.53"}, {"measurement": "logFC RP11-21C4.1", "setting": "vs UV-treated group", "value": "−1.95"}, {"measurement": "logFC RP11-54A9.1", "setting": "vs UV-treated group", "value": 1.63}, {"measurement": "logFC RP11-184E9.1", "setting": "vs UV-treated group", "value": 1.78}, {"measurement": "logFC RP11-363H12.1", "setting": "vs UV-treated group", "value": "−1.58"}, {"measurement": "logFC RP11-367F23.2", "setting": "vs UV-treated group", "value": 1.70}, {"measurement": "logFC RP11-379B8.1", "setting": "vs UV-treated group", "value": "−1.72"}, {"measurement": "logFC RP11-383F6.1", "setting": "vs UV-treated group", "value": "−1.50"}, {"measurement": "logFC RP11-400K9.4", "setting": "vs UV-treated group", "value": "−1.51"}, {"measurement": "logFC RP11-541M12.6", "setting": "vs UV-treated group", "value": 1.70}, {"measurement": "logFC RP11-1100L3.8", "setting": "vs UV-treated group", "value": "−1.70"}, {"measurement": "logFC RPL34P31", "setting": "vs UV-treated group", "value": "−1.89"}, {"measurement": "logFC SCG2", "setting": "vs UV-treated group", "value": 2.00}, {"measurement": "logFC SERPINB9", "setting": "vs UV-treated group", "value": "−1.59"}, {"measurement": "logFC SLC20A1", "setting": "vs UV-treated group", "value": 1.56}, {"measurement": "logFC STX1A", "setting": "vs UV-treated group", "value": 1.55}, {"measurement": "logFC TGM2", "setting": "vs UV-treated group", "value": 1.58}, {"measurement": "logFC TLR2", "setting": "vs UV-treated group", "value": "−1.63"}, {"measurement": "logFC TM4SF1", "setting": "vs UV-treated group", "value": 2.08}, {"measurement": "logFC TMEM154", "setting": "vs UV-treated group", "value": 1.57}, {"measurement": "logFC TMEM178A", "setting": "vs UV-treated group", "value": "−1.52"}, {"measurement": "logFC TMEM233", "setting": "vs UV-treated group", "value": 2.12}, {"measurement": "logFC TNFRSF9", "setting": "vs UV-treated group", "value": "−1.68"}, {"measurement": "logFC TNFSF10", "setting": "vs UV-treated group", "value": "−2.14"}, {"measurement": "logFC TNFSF13B", "setting": "vs UV-treated group", "value": "−1.61"}, {"measurement": "logFC TP63", "setting": "vs UV-treated group", "value": "−1.61"}]}]}
